In patent US7291612B2, “Immunomodulatory compounds” (Active Biotech A.B., priority 2002, dated 2007):
Like-named read-outs stand apart in the source and are kept apart here.

Molecular target: T1, CD80-CD28 interaction (Homo sapiens, UniProt P33681)
T1 construct: mouse Fab fragment (fusion partner)
T1 sequence (P33681 35-242 limits assumed): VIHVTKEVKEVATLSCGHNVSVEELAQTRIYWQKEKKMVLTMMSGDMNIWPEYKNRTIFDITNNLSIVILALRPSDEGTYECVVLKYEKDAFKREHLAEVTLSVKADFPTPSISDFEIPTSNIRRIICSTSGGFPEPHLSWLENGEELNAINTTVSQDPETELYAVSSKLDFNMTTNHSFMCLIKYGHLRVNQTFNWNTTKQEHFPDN
Assay: cell free Homogenous Time Resolved Fluorescence (HTRF) assay, inhibition of the CD80-CD28 interaction
Type: binding
Protocol: The examples described above were tested in a cell free Homogenous Time Resolved Fluorescence (HTRF) assay to determine their activity as inhibitors of the CD80-CD28 interaction.
In the assay, europium and allophycocyanin (APC) are associated with CD28 and CD80 indirectly (through antibody linkers) to form a complex, which brings the europium and APC into close proximity to generate a signal. The complex comprises the following six proteins: fluorescent label 1, linker antibody 1, CD28 fusion protein, CD80 fusion protein, linker antibody 2, and fluorescent label 2. The table below describes these reagents in greater detail.
On formation of the complex, europium and APC are brought into proximity and a signal is generated.
Non-specific interaction was measured by substituting a mouse Fab fragment (C215) for the CD80 mouse Fab fragment fusion protein (1.9 μg/ml). The assay was carried out in black 384 well plates in a final volume of 30 μl. Assay buffer: 50 mM Tris-HCl, 150 mM NaCl pH7.8, containing 0.1% BSA (w/v) added just prior to use.
Compounds were added to the above reagents in a concentration series ranging between 100 μM-1.7 nM. The reaction was incubated for 4 hours at room temperature. Dual measurements were made using a Wallac Victor 1420 Multilabel Counter. First measurement: excitation 340 nm, emission 665 nm, delay 50 μs, window time 200 μs. second measurement: excitation 340 nm, emission 615 nm, delay 50 μs, window time 200 μs. Counts were automatically corrected for fluorescence crossover, quenching and background.

[1] = 4 hours at room temperature, read-out: Activity (EC50 in summary form)

Row | SMILES | EC50 [1] | EC50 (read-out: EC50)
1 | CCCC(CCC)C(=O)Nc1ccc(-n2nc3c4cccc(F)c4[nH]cc-3c2=O)cc1 [Example 5, 2-Propyl-pentanoic acid [4-(6-fluoro-3-oxo-3,5-dihydro-pyrazolo[4,3-c]quinolin-2-yl)-phenyl]-amide] | > 10 µM | 
2 | COC(=O)CCCCC(=O)Nc1ccc(-n2nc3c4cccc(F)c4[nH]cc-3c2=O)cc1 [Example 6, 5-[4-(6-Fluoro-3-oxo-3,5-dihydro-pyrazolo[4,3-c]quinolin-2-yl)phenylcarbamoyl]-pentanoic acid methyl ester] | < 1 µM | 
3 | O=C(COCc1ccccc1)Nc1ccc(-n2nc3c4cccc(F)c4[nH]cc-3c2=O)cc1 [Example 8] | 1 to 10 µM | 
4 | O=C(Nc1ccc(-n2nc3c4cccc(F)c4[nH]cc-3c2=O)cc1)c1ccco1 [Example 10] | > 10 µM | 
5 | O=C(Nc1ccc(-n2nc3c4cccc(F)c4[nH]cc-3c2=O)cc1)c1ccc(N2CCOCC2)nc1 [Example 11] | > 10 µM | 
6 | CCCc1c(C(=O)Nc2ccc(-n3nc4c5cccc(F)c5[nH]cc-4c3=O)cc2)cnn1-c1ccccc1 [Example 14] | > 10 µM | 
7 | O=C(Nc1ccc(-n2nc3c4cccc(F)c4[nH]cc-3c2=O)cc1)c1ncoc1-c1ccccc1 [Example 15] | 1 to 10 µM | 8 µM
8 | O=C(CC1CCCC1)Nc1ccc(-n2nc3c4cccc(F)c4[nH]cc-3c2=O)cc1 [Example 19] | 1 to 10 µM | 
9 | CC(=O)N1CCC(C(=O)Nc2ccc(-n3nc4c5cccc(F)c5[nH]cc-4c3=O)cc2)CC1 [Example 20] | 1 to 10 µM | 
10 | O=C(Cc1c(Cl)cccc1Cl)Nc1ccc(-n2nc3c4cccc(F)c4[nH]cc-3c2=O)cc1 [Example 21] | 1 to 10 µM | 1.9 µM
11 | COC(=O)CCCCCCCCC(=O)Nc1ccc(-n2nc3c4cccc(F)c4[nH]cc-3c2=O)cc1 [Example 23] | 1 to 10 µM | 
12 | COCCOCC(=O)Nc1ccc(-n2nc3c4cccc(F)c4[nH]cc-3c2=O)cc1 [Example 25] | 1 to 10 µM | 
13 | O=C(Nc1ccc(-n2nc3c4cccc(F)c4[nH]cc-3c2=O)cc1)c1ccno1 [Example 28] | 1 to 10 µM | 
14 | CN(CCCNCC(=O)Nc1ccc(-n2nc3c4cccc(F)c4[nH]cc-3c2=O)cc1)c1ccccc1 [Example 31] | > 10 µM | 
15 | CN(C)c1ccc(CNCC(=O)Nc2ccc(-n3nc4c5cccc(F)c5[nH]cc-4c3=O)cc2)cc1 [Example 32] | > 10 µM | 
16 | CN1C(C)(C)CC(NCC(=O)Nc2ccc(-n3nc4c5cccc(F)c5[nH]cc-4c3=O)cc2)CC1(C)C [Example 33] | < 1 µM | 

Row | SMILES | EC50 [1] | EC50 (read-out: EC50)
17 | O=C(CN1CCN(C2CCCCCC2)CC1)Nc1ccc(-n2nc3c4cccc(F)c4[nH]cc-3c2=O)cc1 [Example 34] | < 1 µM | 
18 | O=C(CNCCCN1CCCC1=O)Nc1ccc(-n2nc3c4cccc(F)c4[nH]cc-3c2=O)cc1 [Example 35] | < 1 µM | 0.148 µM
19 | O=C(CNCCc1ccccn1)Nc1ccc(-n2nc3c4cccc(F)c4[nH]cc-3c2=O)cc1 [Example 36] | 1 to 10 µM | 
20 | O=C(CNC1CCCCNC1=O)Nc1ccc(-n2nc3c4cccc(F)c4[nH]cc-3c2=O)cc1 (stereo not shown) [Example 37] | 1 to 10 µM | 
21 | COC(=O)CC[C@H](N)C(=O)Nc1ccc(-n2nc3c4cccc(F)c4[nH]cc-3c2=O)cc1 [Example 38] | 1 to 10 µM | 
22 | CN1CCCC1CCNCC(=O)Nc1ccc(-n2nc3c4cccc(F)c4[nH]cc-3c2=O)cc1 (stereo not shown) [Example 39] | < 1 µM | 
23 | O=C(CNCCCn1ccnc1)Nc1ccc(-n2nc3c4cccc(F)c4[nH]cc-3c2=O)cc1 [Example 40] | 1 to 10 µM | 
24 | CC(C)N(CCNCC(=O)Nc1ccc(-n2nc3c4cccc(F)c4[nH]cc-3c2=O)cc1)C(C)C [Example 41] | 1 to 10 µM | 
25 | O=C(CN1CCCCC1)Nc1ccc(-n2nc3c4cccc(F)c4[nH]cc-3c2=O)cc1 [Example 42] | 1 to 10 µM | 
26 | CC(N)C(=O)Nc1ccc(-n2nc3c4ccccc4[nH]cc-3c2=O)cc1 (stereo not shown) [Example 43] | 1 to 10 µM | 
27 | CCCC(C)C(=O)Nc1ccc(-n2nc3c4ccccc4[nH]cc-3c2=O)cc1 (stereo not shown) [Example 44] | > 10 µM | 
28 | CC(C)C(=O)Nc1ccc(-n2nc3c4ccccc4[nH]cc-3c2=O)cc1 [Example 45] | 1 to 10 µM | 
29 | CCC(C)C(=O)Nc1ccc(-n2nc3c4ccccc4[nH]cc-3c2=O)cc1 (stereo not shown) [Example 47] | 1 to 10 µM | 
30 | O=C(CN1CCN(Cc2ccc(F)cc2)CC1)Nc1ccc(-n2nc3c4cccc(F)c4[nH]cc-3c2=O)cc1 [Example 48] | 1 to 10 µM | 
31 | CN(CC(=O)Nc1ccc(-n2nc3c4cccc(F)c4[nH]cc-3c2=O)cc1)Cc1ccccc1 [Example 49] | 1 to 10 µM | 
32 | COCCCNC(=O)c1cccc(-n2nc3c4cccc(F)c4[nH]cc-3c2=O)c1 [Example 50, 3-(6-Fluoro-3-oxo-3,5-dihydro-pyrazolo[4,3-c]quinolin-2-yl)-N-(3-methoxy-propyl)-benzamide] | 1 to 10 µM | 

Now from value to molecule:

Row | EC50 [1] | EC50 (read-out: EC50) | SMILES
33 | < 1 µM |  | CCC(C)C(=O)Nc1ccc(-n2nc3c4cccc(F)c4[nH]cc-3c2=O)cc1 (stereo not shown) [Example 1, N-[4-(6-Fluoro-3-oxo-3,5-dihydropyrazolo[4,3-c]quinolin-2-yl)-phenyl]-2-methyl-butyramide]
34 | < 1 µM |  | CCCC(C)C(=O)Nc1ccc(-n2nc3c4cccc(F)c4[nH]cc-3c2=O)cc1 (stereo not shown) [Example 2, 2-Methyl-pentanoic acid [4-(6-fluoro-3-oxo-3,5-dihydro-pyrazolo[4,3-c]quinolin-2-yl)-phenyl]-amide]
35 | > 10 µM |  | Cn1cccc1C(=O)Nc1ccc(-n2nc3c4cccc(F)c4[nH]cc-3c2=O)cc1 [Example 3, 1-Methyl-1H-pyrrole-2-carboxylic acid [4-(6-fluoro-3-oxo-3,5-dihydro-pyrazolo[4,3-c]quinolin-2-yl)-phenyl]-amide]
36 | 1 to 10 µM |  | CC(C)CC(=O)Nc1ccc(-n2nc3c4cccc(F)c4[nH]cc-3c2=O)cc1 [Example 4, N-[4-(6-Fluoro-3-oxo-3,5-dihydro-pyrazolo[4,3-c]quinolin-2-yl)-phenyl]-3-methyl-butyramide]
37 | 1 to 10 µM |  | CC(C)(C)C(=O)Nc1ccc(-n2nc3c4cccc(F)c4[nH]cc-3c2=O)cc1 [Example 7, N-[4-(6-Fluoro-3-oxo-3,5-dihydro-pyrazolo[4,3-c]quinolin-2-yl)-phenyl]-2,2-dimethyl-propionamide]
38 | 1 to 10 µM |  | O=C(CCl)Nc1ccc(-n2nc3c4cccc(F)c4[nH]cc-3c2=O)cc1 [Example 9]
39 | 1 to 10 µM |  | COC(=O)C(=O)Nc1ccc(-n2nc3c4cccc(F)c4[nH]cc-3c2=O)cc1 [Example 12]
40 | 1 to 10 µM |  | CC(=O)Nc1ccc(-n2nc3c4cccc(F)c4[nH]cc-3c2=O)cc1 [Example 16]
41 | > 10 µM |  | CCCCC(CC)C(=O)Nc1ccc(-n2nc3c4cccc(F)c4[nH]cc-3c2=O)cc1 (stereo not shown) [Example 17]
42 | < 1 µM |  | CCC(CC)C(=O)Nc1ccc(-n2nc3c4cccc(F)c4[nH]cc-3c2=O)cc1 [Example 18]
43 | < 1 µM |  | CC(=O)OC(C)(C)C(=O)Nc1ccc(-n2nc3c4cccc(F)c4[nH]cc-3c2=O)cc1 [Example 22]
44 | < 1 µM |  | CC(C)C(=O)Nc1ccc(-n2nc3c4cccc(F)c4[nH]cc-3c2=O)cc1 [Example 24]
45 | 1 to 10 µM |  | COCC(=O)Nc1ccc(-n2nc3c4cccc(F)c4[nH]cc-3c2=O)cc1 [Example 27]
46 | < 1 µM | 0.95 µM | C[N+](C)(C)CCCC(=O)Nc1ccc(-n2nc3c4cccc(F)c4[nH]cc-3c2=O)cc1 [Example 29]
47 | < 1 µM |  | CN(C)CCCC(=O)Nc1ccc(-n2nc3c4cccc(F)c4[nH]cc-3c2=O)cc1 [Example 30]
48 | < 1 µM |  | CC(N)C(=O)Nc1ccc(-n2nc3c4cccc(F)c4[nH]cc-3c2=O)cc1 (stereo not shown) [Example 46]
